The values that follow come from ChEMBL document CHEMBL3797129, “Dysiherbols A-C and Dysideanone E, Cytotoxic and NF-κB Inhibitory Tetracyclic Meroterpenes from a Dysidea sp. Marine Sponge” (J Nat Prod, 2016).

A value given as a limit tells only on which side of the number the result lay.

Experiment [1] is described as follows: Inhibition of TNF alpha-induced NF-kappaB (unknown origin) activation in HEK293 cells after 6 hrs by luciferase reporter gene assay. The experiment is classed as cell-based. The note with it: Homo sapiens, HEK293, 6 h. On the technique in general: In a reporter assay the amount or activity of a reporter protein is the signal.
Experiment [2] in a line: Cytotoxicity against human NCI-H929 cells after 48 hrs by MTS assay. The format is functional, cell-based. The note with it: NCI-H929, 48 h.

As usually defined, the IC50 is the concentration needed to halve the response being measured. For the molecule `CC1=CCC[C@H]2[C@](C)(Cc3cc(O)ccc3O)[C@@H](C)CC[C@]12C` [AVAROL], the IC50 was more than 10 µM in experiment [1] and 3.32 µM in experiment [2].

For the molecule `COc1ccc([C@@]23Oc4cc(OC)cc(OC)c4[C@]2(O)[C@H](O)[C@H](C(=O)N(C)C)[C@H]3c2ccccc2)cc1` [ROCAGLAMIDE], the IC50 in experiment [1] worked out at 2.6 µM; in experiment [2], 3.9 µM.

With `C=C1CC[C@H]2[C@H]3[C@](C)(CC4=CC(=O)C=C[C@@]42O)[C@@H](C)CC[C@]13C`, the IC50 is more than 10 µM in experiment [1] and 25 µM in experiment [2].

With `C[C@@H]1CC[C@]2(C)[C@@]3(CCC(=O)[C@]2(C)O)c2c(O)ccc(O)c2C[C@@]13C`, the IC50 in experiment [1] turned out to be 6.4 µM; in experiment [2] it was 12 µM.

For the molecule `C[C@@H]1CC[C@]2(C)[C@@]3(CC[C@H](O)[C@]2(C)O)c2c(O)ccc(O)c2C[C@@]13C`, the 50% inhibitory concentration (IC50) in experiment [1] worked out at 5.9 µM; in experiment [2], 15 µM.

Take `C[C@@H]1CC[C@]2(C)[C@@]3(CCC[C@]2(C)O)c2c(O)ccc(O)c2C[C@@]13C`: the IC50 in experiment [1] was 0.49 µM; in experiment [2] it was 0.58 µM.
